Reference: US20060247223A1, “Non-imidazole alkylamines as histamine H3- receptor ligands and their therapeutic applications” (priority 1998, published 2006)
Read-outs that look alike come from different tables or passages of the source.

What was measured:
[1] = target: T1, H3 receptor (Rattus norvegicus, UniProt Q9QYN8); test: release of neosynthesized tritiated histamine from rat cerebral cortex synaptosomes; assay type: biochemical
T1 construct: release of neosynthesized tritiated histamine from rat cerebral cortex synaptosomes; from tissue; host or cells: rat cerebral cortex synaptosomes
T1 sequence (Q9QYN8 whole entry): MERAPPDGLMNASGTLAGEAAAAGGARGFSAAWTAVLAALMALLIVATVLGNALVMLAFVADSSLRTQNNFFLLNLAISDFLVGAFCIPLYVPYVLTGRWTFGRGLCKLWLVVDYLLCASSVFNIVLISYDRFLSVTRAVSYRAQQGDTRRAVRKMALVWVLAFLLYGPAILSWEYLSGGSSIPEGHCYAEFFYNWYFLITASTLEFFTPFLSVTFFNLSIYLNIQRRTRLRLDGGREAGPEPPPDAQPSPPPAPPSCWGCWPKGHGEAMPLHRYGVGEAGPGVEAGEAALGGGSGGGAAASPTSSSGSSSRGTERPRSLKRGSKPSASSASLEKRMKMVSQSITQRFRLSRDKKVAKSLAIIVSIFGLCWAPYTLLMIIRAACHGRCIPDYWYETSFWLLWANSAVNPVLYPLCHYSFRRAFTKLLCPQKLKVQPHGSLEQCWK

[2] = target: T2, H3 receptor (Mus musculus, UniProt P58406); test: tele-methylhistamine level variations in the brain of mice after p.o. administration; assay type: in vivo; settings: for ED50 (mg/kg/p.o.): tele-methylhistamine level in brain, dose for half maximal effect
T2 construct: estimated in vivo by the measurement of the tele-methylhistamine level variations in the brain of mice; from tissue; host or cells: mouse brain, in vivo after p.o. administration
T2 sequence (P58406 whole entry): as the sequence (Q9QYN8 whole entry) above, with T15A, A286T, A290G, R387H, I389V counted along it
Description: At various time after p.o. administration of the. compounds, the effect of agonists and antagonists are evidenced by the decrease and increase respectively in telemethylhistamine level induced.
The changes are compared to those induced by reference compounds given in high dosage and this allows the calculation of the ED50 value for each compound which correspond to the dose responsible for an half maximal effect.

[3] = target: T3, H3 receptor (Cavia porcellus, UniProt Q9JI35); test: guinea-pig ileum longitudinal muscle strips, electrically stimulated contraction, (R)α-methylhistamine curves with antagonist; assay type: biochemical; settings: against (R)α-methylhistamine, 1 μM mepyramine present, read-out: H3-receptor antagonist activity pA2 (guinea-pig ileum) (converted)
T3 construct: longitudinal muscle strips from guinea-pig small intestine were dissected out; from tissue; host or cells: guinea-pig small intestine longitudinal muscle strips
T3 sequence (Q9JI35 whole entry): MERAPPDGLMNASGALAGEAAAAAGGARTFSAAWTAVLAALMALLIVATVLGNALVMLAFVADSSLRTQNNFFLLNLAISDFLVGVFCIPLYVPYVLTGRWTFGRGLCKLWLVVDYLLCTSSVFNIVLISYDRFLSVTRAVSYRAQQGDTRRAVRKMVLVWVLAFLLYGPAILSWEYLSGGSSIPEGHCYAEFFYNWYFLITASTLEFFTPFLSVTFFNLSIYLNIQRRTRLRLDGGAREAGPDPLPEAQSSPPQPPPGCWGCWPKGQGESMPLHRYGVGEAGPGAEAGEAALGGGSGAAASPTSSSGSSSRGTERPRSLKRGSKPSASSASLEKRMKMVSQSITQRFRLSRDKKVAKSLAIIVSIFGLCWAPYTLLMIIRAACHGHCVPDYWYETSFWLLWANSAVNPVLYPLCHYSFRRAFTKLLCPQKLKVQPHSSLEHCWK
Method: Briefly, longitudinal muscle strips from guinea-pig small intestine were dissected out and incubated in a gassed O2/CO2 (95%/5%) modified Krebs-Ringer's bicarbonate medium at +37° C. in presence of 1 μM mepyramine to block the H1 receptor. After equilibration, contractile activity under stimulation (rectangular pulses of 15 V, 0.5 msec, 0.1 Hz) was recorded. Concentration-response curves of the effect of (R)α-Methylhistamine alone or together with the antagonist were established.

[4] = H3 receptor, rat cerebral cortex synaptosomes, reversal of (R)α-methylhistamine inhibition of tritiated histamine release, read-out: Ki

Ki [1, 4] | ED50 (mg/kg/p.o.) [2] | Kb [3] | SMILES | Ki [1] | ED50 ([2]; mouse, po, brain tele-methylhistamine level, dose responsible for an half maximal effect)
95 ± 28 nM | 0.50 mg/kg/p.o. | – | CCN(CC)CCCOc1ccc(C#N)cc1 [Example 43, N-[3-(4-cyanophenoxy)-propyl]-diethylamine] | – | –
20 ± 7 nM | 0.44 mg/kg/p.o. | – | CCN(CC)CCCOc1ccc(C(C)=O)cc1 [Example 46, N-[3-(4-acetylphenoxy)-propyl]-diethylamine] | – | –
28 ± 7 nM | 1.0 mg/kg/p.o. | – | CC(O)c1ccc(OCCCCCN2CCCC2)cc1 (stereo not drawn) [Example 50, 1-{5-[4-(1-hydroxyethyl)-phenoxy]-pentyl}-pyrrolidine] | – | –
62 ± 15 nM | 1.1 mg/kg/p.o. | – | CCN(CC)CCCCOc1ccc(C#N)cc1 [Example 56, N-[4-(4-cyanophenoxy)-butyl]-diethylamine] | – | –
2.7 ± 0.9 nM | 0.8 mg/kg/p.o. | – | CCN(CC)CCCOc1ccc(/C(C)=N/O)cc1 [Example 64, 4-(3-diethylaminopropoxy)-acetophenone-oxime] | – | –
3.7 ± 0.5 nM | 0.3 mg/kg/p.o. | – | CC(=O)c1ccc(OCCCN2CCCC(C)C2)cc1 (stereo not drawn) [Example 66, 1-[3-(4-acetylphenoxy)-propyl]-3-methyl-piperidine] | – | –
4.6 ± 2 nM | 0.5 mg/kg/p.o. | – | CC(=O)c1ccc(OCCCN2CCC(C)CC2)cc1 [Example 68, 1-[3-(4-acetylphenoxy)-propyl]-4-methyl-piperidine] | – | –
4.7 ± 0.8 nM | 0.6 mg/kg/p.o. | – | CCC(=O)c1ccc(OCCCN2CCCCC2)cc1 [Example 69, 1-[3-(4-propionylphenoxy)-propyl]-piperidine] | – | –
– | – | 501 nM | CCCCCNC(=O)OCCCN1CCCCC1 [Example 120, N-Pentyl-3-piperidinopropyl carbamate] | – | –
– | – | 398 nM | CCCCCCC(=O)N1CCC(N2CCCCC2)CC1 [Example 124, N-Heptanoyl-1,4′-bipiperidine] | – | –
– | – | 251 nM | c1ccc2sc(NCCN3CCCCC3)nc2c1 [Example 131, 2-((2-Piperidinoethyl)amino)benzothiazole] | – | –
– | – | 316 nM | c1ccc(CCCCCCN2CCCCC2)cc1 [Example 136, N-(6-Phenylhexyl)piperidine] | – | –

SMILES | Ki [1, 4] | ED50 (mg/kg/p.o.) [2] | Kb [3] | Ki [1] | ED50 ([2]; mouse, po, brain tele-methylhistamine level, dose responsible for an half maximal effect)
N#Cc1ccc(OCCCN2CCCCC2)cc1 [Example 59, 1-[3-(4-cyanophenoxy)propyl]piperidine] | – | 0.20 mg/kg/p.o. | – | 11 ± 2 nM | 0.02 mg/kg
N#Cc1ccc(OCCCN2CCCCCC2)cc1 [Example 60, N-[3-(4-cyanophenoxy)-propyl]-hexamethyleneimine] | 8.7 ± 2.1 nM | 0.64 mg/kg/p.o. | – | – | –
CCN(CC)CCCOc1ccc(C(C)O)cc1 (stereo not drawn) [Example 63, N-3-[4-(1-hydroxyethyl)-phenoxy]-propyl-diethylamine] | 60 ± 18 nM | 0.45 mg/kg/p.o. | – | – | –
